Measurements: BindingDB's records for PubMed 25825497 (Eli Lilly)

Legend:
[1] = molecular target: Mitogen-activated protein kinase kinase kinase 12 (DLK/MAP3K12) (Homo sapiens) (UniProt Q12852); assay: Inhibition of human DLK by discoverX kinome scan assay
[2] = molecular target: Serine/threonine-protein kinase OSR1 (OXSR1) (Homo sapiens) (UniProt O95747); assay: Inhibition of human OSR1 by discoverX kinome scan assay
[3] = molecular target: Serine/threonine-protein kinase PRP4 homolog (PRPF4B) (Homo sapiens) (UniProt Q13523); assay: Inhibition of human PRP4 by discoverX kinome scan assay
Serine/threonine-protein kinase PRP4 homolog (PRPF4B) (Homo sapiens), sequence (Q13523 whole entry, looked up): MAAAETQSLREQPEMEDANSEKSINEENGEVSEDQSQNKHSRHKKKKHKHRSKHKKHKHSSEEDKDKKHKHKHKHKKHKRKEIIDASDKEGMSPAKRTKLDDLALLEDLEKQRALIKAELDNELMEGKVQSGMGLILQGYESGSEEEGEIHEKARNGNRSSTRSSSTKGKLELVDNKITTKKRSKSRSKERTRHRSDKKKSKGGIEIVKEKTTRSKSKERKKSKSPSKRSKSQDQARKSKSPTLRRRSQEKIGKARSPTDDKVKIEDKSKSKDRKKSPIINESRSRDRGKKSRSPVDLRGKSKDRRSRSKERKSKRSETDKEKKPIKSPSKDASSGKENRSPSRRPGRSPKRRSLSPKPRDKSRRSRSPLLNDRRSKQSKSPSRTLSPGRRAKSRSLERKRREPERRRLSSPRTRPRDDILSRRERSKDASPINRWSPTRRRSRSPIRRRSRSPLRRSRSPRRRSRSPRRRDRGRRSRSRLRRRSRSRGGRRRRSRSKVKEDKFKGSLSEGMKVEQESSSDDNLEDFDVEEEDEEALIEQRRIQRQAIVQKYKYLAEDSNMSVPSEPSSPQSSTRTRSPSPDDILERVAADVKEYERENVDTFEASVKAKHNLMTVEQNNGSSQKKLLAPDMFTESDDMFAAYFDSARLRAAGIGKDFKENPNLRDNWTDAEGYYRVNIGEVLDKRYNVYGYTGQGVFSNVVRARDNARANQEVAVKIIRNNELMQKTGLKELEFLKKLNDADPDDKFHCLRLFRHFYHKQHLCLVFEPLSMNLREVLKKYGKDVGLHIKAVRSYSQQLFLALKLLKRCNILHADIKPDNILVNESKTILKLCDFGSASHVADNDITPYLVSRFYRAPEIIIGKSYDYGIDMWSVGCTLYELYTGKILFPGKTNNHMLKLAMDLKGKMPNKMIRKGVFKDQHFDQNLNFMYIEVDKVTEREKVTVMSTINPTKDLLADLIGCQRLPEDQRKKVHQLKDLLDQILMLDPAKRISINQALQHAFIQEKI

[4] = molecular target: Mitogen-activated protein kinase kinase kinase 7 (TAK1/MAP3K7) (Homo sapiens) (UniProt O43318); assay: Inhibition of human TAK1 by discoverX kinome scan assay
Mitogen-activated protein kinase kinase kinase 7 (TAK1/MAP3K7) (Homo sapiens), sequence (O43318 whole entry, looked up): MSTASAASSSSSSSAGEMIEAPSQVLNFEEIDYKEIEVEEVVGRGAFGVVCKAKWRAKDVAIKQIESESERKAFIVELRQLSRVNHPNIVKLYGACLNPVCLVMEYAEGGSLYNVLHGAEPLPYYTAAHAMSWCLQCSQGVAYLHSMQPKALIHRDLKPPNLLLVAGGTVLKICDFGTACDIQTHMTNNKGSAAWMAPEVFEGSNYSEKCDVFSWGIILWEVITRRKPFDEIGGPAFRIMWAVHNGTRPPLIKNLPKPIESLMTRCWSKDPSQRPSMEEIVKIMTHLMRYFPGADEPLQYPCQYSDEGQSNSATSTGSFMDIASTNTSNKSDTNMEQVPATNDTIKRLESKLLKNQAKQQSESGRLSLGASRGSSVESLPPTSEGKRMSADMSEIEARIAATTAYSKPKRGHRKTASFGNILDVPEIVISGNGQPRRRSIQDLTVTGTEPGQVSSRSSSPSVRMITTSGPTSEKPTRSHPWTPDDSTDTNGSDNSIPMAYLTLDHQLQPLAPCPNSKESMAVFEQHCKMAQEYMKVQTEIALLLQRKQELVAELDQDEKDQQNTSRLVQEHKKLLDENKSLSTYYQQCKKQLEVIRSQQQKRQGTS

Measured: IC50

Mitogen-activated protein kinase kinase kinase 12 (DLK/MAP3K12) (Homo sapiens), sequence (Q12852 whole entry, looked up): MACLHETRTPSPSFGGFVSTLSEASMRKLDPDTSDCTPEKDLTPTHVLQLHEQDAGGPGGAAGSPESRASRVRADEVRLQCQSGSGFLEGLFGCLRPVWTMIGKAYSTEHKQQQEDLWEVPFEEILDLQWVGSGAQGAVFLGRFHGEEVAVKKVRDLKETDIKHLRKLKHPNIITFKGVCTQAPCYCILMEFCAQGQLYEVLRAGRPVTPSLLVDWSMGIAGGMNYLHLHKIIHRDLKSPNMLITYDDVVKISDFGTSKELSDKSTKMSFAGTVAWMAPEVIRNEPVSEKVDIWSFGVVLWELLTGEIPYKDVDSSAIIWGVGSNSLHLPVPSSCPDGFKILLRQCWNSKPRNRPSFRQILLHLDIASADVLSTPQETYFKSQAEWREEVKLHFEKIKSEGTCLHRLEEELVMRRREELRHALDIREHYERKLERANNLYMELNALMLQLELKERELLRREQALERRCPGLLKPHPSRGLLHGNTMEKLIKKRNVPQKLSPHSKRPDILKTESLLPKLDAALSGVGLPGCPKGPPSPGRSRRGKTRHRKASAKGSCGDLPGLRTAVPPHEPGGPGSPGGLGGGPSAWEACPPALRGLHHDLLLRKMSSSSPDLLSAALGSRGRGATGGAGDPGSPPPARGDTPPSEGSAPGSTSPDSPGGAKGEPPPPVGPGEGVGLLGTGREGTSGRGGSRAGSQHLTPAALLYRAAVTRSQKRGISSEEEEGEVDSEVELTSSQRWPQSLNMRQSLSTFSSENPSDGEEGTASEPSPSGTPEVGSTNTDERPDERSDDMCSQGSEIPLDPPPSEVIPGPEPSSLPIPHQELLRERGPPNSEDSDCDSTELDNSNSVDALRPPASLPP
Serine/threonine-protein kinase OSR1 (OXSR1) (Homo sapiens), sequence (O95747 whole entry, looked up): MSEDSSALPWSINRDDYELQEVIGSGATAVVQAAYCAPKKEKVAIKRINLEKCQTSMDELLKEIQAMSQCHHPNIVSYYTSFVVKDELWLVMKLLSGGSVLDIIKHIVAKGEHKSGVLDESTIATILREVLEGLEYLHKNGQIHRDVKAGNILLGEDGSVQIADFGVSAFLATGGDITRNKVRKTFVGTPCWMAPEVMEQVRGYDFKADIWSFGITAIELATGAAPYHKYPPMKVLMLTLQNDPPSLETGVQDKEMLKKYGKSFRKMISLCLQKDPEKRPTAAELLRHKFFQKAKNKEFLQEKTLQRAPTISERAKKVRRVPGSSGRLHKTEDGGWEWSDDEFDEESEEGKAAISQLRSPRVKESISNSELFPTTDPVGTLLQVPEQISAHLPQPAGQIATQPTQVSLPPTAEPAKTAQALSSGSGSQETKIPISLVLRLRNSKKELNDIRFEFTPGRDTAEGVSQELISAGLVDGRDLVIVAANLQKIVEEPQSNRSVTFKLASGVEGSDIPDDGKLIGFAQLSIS

Cc1cn(CCN2CCN(c3ccccc3-c3cc(C#N)cc(C(=O)NCCCN4CCCC4)c3)CC2)c2ccccc12
> 20 µM: all assays above
